Data set [1] is classed as physicochemical.
Data set [2] is classed as physicochemical. This is another data set of the same source.

Where two headings read alike, the source gives them in different places.

From US20060057671A1 (priority 2004, published 2006) come the findings set out here.

For the substance poly-L-lysine, the absorbance plateau result is “approximately 0.22” in data set [1] (pH 7) and “approximately 0.12” in data set [1] (pH 11). Also, the CD minimum entry in data set [2] (pH 7) was “approximately 204 nm”; in data set [2] (pH 11), “approximately 216 nm”.
